What all share (assay): In vitro MMP inhibition, IC50 determination (fluorogenic substrate I)
Assay type in all cases: biochemical
What all share (conditions): value outside parenthesis

For one experiment, the target named is T1, Human recombinant MMP-14 (Homo sapiens, UniProt P50281).
T1 construct: The catalytic domain enzyme was expressed in E. coli inclusion bodies, solubilized in urea; made in house
A digest of the protocol:
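IC50 came from reduced fluorescence (ex 328 nm, em 415 nm) as inhibitor concentration rose, with 4 μM substrate I cleaved at Gly-Leu. Room-temperature incubation in pH 7.5 Tris buffer with 10 mM CaCl2; the E. coli-expressed, refolded MMP-14 catalytic domain was activated with trypsin or APMA.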

For a further experiment, the target named is T2, Human recombinant MMP-9 (Homo sapiens, UniProt P14780).
T2 construct: made in house; host or cells: MMP-9-transfected HT1080 cells (spent media)
Summed up: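 Reduction in fluorescence (328 nm excitation, 415 nm emission) from cleavage of 4 μM quenched peptide substrate I, measured at room temperature against inhibitor concentration, gave IC50. Enzyme: trypsin- or APMA-activated MMP-9 purified from transfected HT1080 medium; buffer 100 mM Tris, 100 mM NaCl, 10 mM CaCl2, pH 7.5.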

A further experiment concerns the target T3, Human recombinant MMP-2 (Homo sapiens, UniProt P08253).
T3 construct: made in house; host or cells: MMP-2-transfected p2AHT2 cells
T3 sequence (P08253 110-660): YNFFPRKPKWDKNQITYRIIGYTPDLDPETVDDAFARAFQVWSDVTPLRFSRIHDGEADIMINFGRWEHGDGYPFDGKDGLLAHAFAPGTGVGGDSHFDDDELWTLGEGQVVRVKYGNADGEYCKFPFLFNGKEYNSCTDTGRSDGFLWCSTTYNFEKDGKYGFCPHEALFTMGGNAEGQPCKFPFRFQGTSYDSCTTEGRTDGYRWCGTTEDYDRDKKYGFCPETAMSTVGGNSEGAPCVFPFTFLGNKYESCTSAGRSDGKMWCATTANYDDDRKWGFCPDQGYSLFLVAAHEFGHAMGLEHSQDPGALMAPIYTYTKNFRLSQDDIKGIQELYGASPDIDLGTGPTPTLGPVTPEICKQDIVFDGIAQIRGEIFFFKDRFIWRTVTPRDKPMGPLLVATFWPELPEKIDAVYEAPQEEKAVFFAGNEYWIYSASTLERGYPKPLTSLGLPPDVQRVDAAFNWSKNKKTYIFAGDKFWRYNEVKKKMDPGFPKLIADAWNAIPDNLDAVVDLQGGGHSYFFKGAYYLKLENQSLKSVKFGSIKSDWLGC
A digest of the protocol:
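IC50 was derived from the concentration-dependent fall in fluorescence (ex 328, em 415 nm) on Gly-Leu cleavage of 4 μM MCA/Dpa-quenched substrate I. Assays ran at room temperature in pH 7.5 Tris/NaCl/CaCl2/Brij buffer with MMP-2 activated by trypsin or APMA; inhibitors were diluted from 1% DMSO stocks.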

The target in another experiment is T4, Human recombinant MMP-13 (Homo sapiens, UniProt P45452).
T4 construct: made in house; host or cells: baculovirus / insect cells
A digest of the protocol: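 Fluorescence at 415 nm (excitation 328 nm) reports Gly-Leu cleavage of 4 μM quenched methoxycoumarin peptide substrate I. Human recombinant MMP-13, activated by trypsin or APMA, was incubated at room temperature with varied inhibitor concentrations in pH 7.5 Tris/NaCl/CaCl2 buffer; IC50 derived from reduced fluorescence.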

The next experiment deals with T5, Human recombinant MMP-1 (Homo sapiens, UniProt P03956).
T5 construct: made in house; host or cells: MMP-1-transfected HT-1080 cells (spent media)
T5 sequence (P03956 100-469): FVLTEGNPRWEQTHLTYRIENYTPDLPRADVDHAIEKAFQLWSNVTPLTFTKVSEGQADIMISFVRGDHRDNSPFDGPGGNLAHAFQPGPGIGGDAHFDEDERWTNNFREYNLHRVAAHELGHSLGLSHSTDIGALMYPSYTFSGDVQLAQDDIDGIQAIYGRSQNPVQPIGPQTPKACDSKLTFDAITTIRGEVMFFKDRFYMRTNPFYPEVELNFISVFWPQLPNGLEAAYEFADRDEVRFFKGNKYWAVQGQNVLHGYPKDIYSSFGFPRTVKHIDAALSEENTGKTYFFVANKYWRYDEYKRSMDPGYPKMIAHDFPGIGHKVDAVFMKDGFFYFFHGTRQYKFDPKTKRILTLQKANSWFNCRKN
Summed up: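 Inhibitor dilutions were made in 100 mM Tris-HCl/100 mM NaCl/10 mM CaCl2 buffer, pH 7.5, and incubated at room temperature with activated proenzyme (from transfected HT-1080 media; APMA or trypsin) and 4 μM quenched methoxycoumarin peptide substrate. Loss of 415 nm fluorescence (328 nm excitation) against concentration gave IC50.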

Bounds are passed on as bounds.

T2 sequence (P14780 107-707 limits assumed): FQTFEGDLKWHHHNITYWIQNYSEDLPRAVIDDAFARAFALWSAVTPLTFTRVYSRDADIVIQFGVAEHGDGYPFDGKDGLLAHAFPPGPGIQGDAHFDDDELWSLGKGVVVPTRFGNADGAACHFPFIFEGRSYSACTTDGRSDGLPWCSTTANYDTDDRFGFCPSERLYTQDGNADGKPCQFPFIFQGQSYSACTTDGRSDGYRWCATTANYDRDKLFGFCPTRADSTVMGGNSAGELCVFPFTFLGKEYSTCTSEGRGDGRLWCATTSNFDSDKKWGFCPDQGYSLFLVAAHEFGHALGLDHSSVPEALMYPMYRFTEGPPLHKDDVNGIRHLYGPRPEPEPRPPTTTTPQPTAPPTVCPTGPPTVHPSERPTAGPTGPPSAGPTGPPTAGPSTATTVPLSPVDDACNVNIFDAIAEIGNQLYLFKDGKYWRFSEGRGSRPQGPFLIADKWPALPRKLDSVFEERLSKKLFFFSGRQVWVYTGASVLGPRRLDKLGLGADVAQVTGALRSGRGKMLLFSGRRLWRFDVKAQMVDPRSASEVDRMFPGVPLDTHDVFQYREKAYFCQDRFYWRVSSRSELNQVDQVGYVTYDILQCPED

Consider `CCCc1ccc(-c2nc(CCCOc3ccc(S(=O)(=O)C4(C(=O)NO)CCN(CCOC)CC4)cc3)oc2C)cc1` [Example 206], for which the IC50 at Human recombinant MMP-14 was 3110 nM; at Human recombinant MMP-9 it was 59.4 nM; on Human recombinant MMP-2, 92.6 nM; on Human recombinant MMP-13, 15.8 nM; on Human recombinant MMP-1, over 10000 nM.
Take `CCCc1ccc(-c2nc(CCCOc3ccc(S(=O)(=O)C4(C(=O)NO)CCOCC4)cc3)oc2C)cc1` [Example 207]: the IC50 on Human recombinant MMP-14 is over 10000 nM; at Human recombinant MMP-9, 127 nM; at Human recombinant MMP-2, 114 nM; at Human recombinant MMP-13, 3.7 nM; on Human recombinant MMP-1, over 10000 nM.
As for `O=C(NCCCOc1ccc(S(=O)(=O)C2(C(=O)NO)CCN(C3CC3)CC2)cc1)c1ccc(OC(F)(F)F)cc1` [Example 208], the IC50 at Human recombinant MMP-14 was over 10000 nM; at Human recombinant MMP-9, 6590 nM; at Human recombinant MMP-2 it was 230 nM; at Human recombinant MMP-13 it was 0.6 nM; on Human recombinant MMP-1, over 10000 nM.
Turning to `CC(C)Oc1ccc(-c2nnc(CCCOc3ccc(S(=O)(=O)C4(C(=O)NO)CCOCC4)cc3)o2)cc1` [Example 209], the IC50 at Human recombinant MMP-14 is over 10000 nM; on Human recombinant MMP-9, 906 nM; on Human recombinant MMP-2, 172 nM; at Human recombinant MMP-13 it was 1.4 nM; on Human recombinant MMP-1 it was over 10000 nM.
With `O=C(NO)C1(S(=O)(=O)c2ccc(OCCCc3nc(-c4cccc([N+](=O)[O-])c4)no3)cc2)CCOCC1` [Example 210], the IC50 on Human recombinant MMP-14 was over 10000 nM; on Human recombinant MMP-9, 285 nM; on Human recombinant MMP-2, 6.9 nM; at Human recombinant MMP-13, 1.3 nM; on Human recombinant MMP-1 it was over 10000 nM.
Turning to `O=C(NO)C1(S(=O)(=O)c2ccc(OCCCc3nc(-c4cc(F)ccc4F)no3)cc2)CCOCC1` [Example 211], the IC50 at Human recombinant MMP-14 was over 10000 nM; at Human recombinant MMP-9 it was 864 nM; at Human recombinant MMP-2 it was 26.2 nM; on Human recombinant MMP-13, 0.4 nM; on Human recombinant MMP-1, 9650 nM.
The corresponding values for `O=C(NO)C1(S(=O)(=O)c2ccc(OCCCc3nc(-c4ccc([N+](=O)[O-])cc4)no3)cc2)CCOCC1` [Example 212] are over 10000 nM, 212 nM, 4.1 nM, 0.3 nM and 1410 nM.
Take `O=C(NO)C1(S(=O)(=O)c2ccc(OCCCc3nc(-c4cccc(Cl)c4Cl)no3)cc2)CCOCC1` [Example 213]: the IC50 on Human recombinant MMP-14 is over 10000 nM; at Human recombinant MMP-9, 2200 nM; at Human recombinant MMP-2, 54.8 nM; at Human recombinant MMP-13, 2.2 nM; on Human recombinant MMP-1 it was over 10000 nM.
For `O=C(NO)C1(S(=O)(=O)c2ccc(OCCCc3nc(-c4c(Cl)cccc4Cl)no3)cc2)CCOCC1` [Example 214], the IC50 on Human recombinant MMP-14 was over 10000 nM; at Human recombinant MMP-9, 4240 nM; on Human recombinant MMP-2, 15.8 nM; on Human recombinant MMP-13, 3.3 nM; at Human recombinant MMP-1, over 10000 nM.
In the case of `O=C(NO)C1(S(=O)(=O)c2ccc(OCCCc3nc(-c4ccc5c(c4)OCO5)no3)cc2)CCOCC1` [Example 215], the IC50 is over 10000 nM at Human recombinant MMP-14; 768 nM on Human recombinant MMP-9; 20.3 nM at Human recombinant MMP-2; 0.3 nM at Human recombinant MMP-13; over 10000 nM at Human recombinant MMP-1.
Regarding `COc1cc(OC)cc(-c2noc(CCCOc3ccc(S(=O)(=O)C4(C(=O)NO)CCOCC4)cc3)n2)c1` [Example 217], the IC50 is over 10000 nM on Human recombinant MMP-14; 5180 nM on Human recombinant MMP-9; 48.9 nM on Human recombinant MMP-2; 4.6 nM at Human recombinant MMP-13; over 10000 nM at Human recombinant MMP-1.
Take `Cc1ccc(-c2noc(CCCOc3ccc(S(=O)(=O)C4(C(=O)NO)CCOCC4)cc3)n2)c(F)c1` [Example 218]: the IC50 on Human recombinant MMP-14 is over 10000 nM; at Human recombinant MMP-9 it was 2970 nM; on Human recombinant MMP-2, 40.4 nM; on Human recombinant MMP-13 it was 1.4 nM; at Human recombinant MMP-1, over 10000 nM.
With `COc1ccccc1-c1nnc(CCCOc2ccc(S(=O)(=O)C3(C(=O)NO)CCOCC3)cc2)o1` [Example 220], the IC50 was over 10000 nM on Human recombinant MMP-14; 1470 nM at Human recombinant MMP-9; 410 nM on Human recombinant MMP-2; 5.7 nM at Human recombinant MMP-13; over 10000 nM at Human recombinant MMP-1.
Consider `O=C1CN(c2ccccc2Cl)C(=O)N1CCCOc1ccc(S(=O)(=O)C2(C(=O)NO)CCOCC2)cc1` [Example 224], for which the IC50 on Human recombinant MMP-14 was over 10000 nM; at Human recombinant MMP-9, 1470 nM; on Human recombinant MMP-2, 193 nM; at Human recombinant MMP-13, 4.7 nM; at Human recombinant MMP-1, over 10000 nM.
For `Cc1ccccc1N1CC(=O)N(CCCOc2ccc(S(=O)(=O)C3(C(=O)NO)CCOCC3)cc2)C1=O` [Example 226], the IC50 at Human recombinant MMP-14 is over 10000 nM; at Human recombinant MMP-9, 2140 nM; at Human recombinant MMP-2, 222 nM; on Human recombinant MMP-13, 4.3 nM; on Human recombinant MMP-1, over 10000 nM.
Consider `COCCN1CCC(C(=O)NO)(S(=O)(=O)c2ccc(OCCCNC(=O)c3ccc(OC(C)C)c(C)c3)cc2)CC1` [Example 230], for which the IC50 at Human recombinant MMP-14 was over 10000 nM; at Human recombinant MMP-9, 1020 nM; on Human recombinant MMP-2, 555 nM; at Human recombinant MMP-13, 1.1 nM; at Human recombinant MMP-1 it was over 10000 nM.
For the compound `COc1ccc(C(=O)CCCc2ccc(S(=O)(=O)C3(C(=O)NO)CCOCC3)cc2)cc1` [Example 231], the IC50 is 642 nM on Human recombinant MMP-14; 10.2 nM on Human recombinant MMP-9; 1.6 nM on Human recombinant MMP-2; 0.2 nM on Human recombinant MMP-13; over 10000 nM at Human recombinant MMP-1.
`O=C1CN(c2cccc(OC(F)(F)F)c2)C(=O)N1CCCOc1ccc(S(=O)(=O)C2(C(=O)NO)CCOCC2)cc1` [Example 232]: the IC50 on Human recombinant MMP-14 was over 10000 nM; on Human recombinant MMP-9, 878 nM; at Human recombinant MMP-2 it was 74.2 nM; at Human recombinant MMP-13, 5.6 nM; on Human recombinant MMP-1, over 10000 nM.
Take `COc1ccc(-c2noc(CCCOc3ccc(S(=O)(=O)C4(C(=O)NO)CCOCC4)cc3)n2)cc1` [Example 237]: the IC50 on Human recombinant MMP-14 was over 10000 nM; on Human recombinant MMP-9, 1110 nM; at Human recombinant MMP-2, 42.5 nM; at Human recombinant MMP-13 it was 0.7 nM; on Human recombinant MMP-1 it was over 10000 nM.
With `Cc1cccc(-c2noc(CCCOc3ccc(S(=O)(=O)C4(C(=O)NO)CCOCC4)cc3)n2)c1` [Example 238], the IC50 on Human recombinant MMP-14 was over 10000 nM; at Human recombinant MMP-9, 1190 nM; at Human recombinant MMP-2 it was 78.7 nM; at Human recombinant MMP-13 it was 1.2 nM; on Human recombinant MMP-1, over 10000 nM.
On to `O=C(NO)C1(S(=O)(=O)c2ccc(OCCCc3nc(-c4ccc(F)cc4)no3)cc2)CCOCC1` [Example 240], for which the IC50 is over 10000 nM on Human recombinant MMP-14; 1430 nM at Human recombinant MMP-9; 84 nM at Human recombinant MMP-2; 0.7 nM on Human recombinant MMP-13; over 10000 nM at Human recombinant MMP-1.
Regarding `O=C(NO)C1(S(=O)(=O)c2ccc(OCCCc3nc(-c4ccccc4)no3)cc2)CCOCC1` [Example 241], the IC50 on Human recombinant MMP-14 was over 10000 nM; on Human recombinant MMP-9, 944 nM; at Human recombinant MMP-2, 60.2 nM; at Human recombinant MMP-13, 1.3 nM; on Human recombinant MMP-1, over 10000 nM.

By IC50 is commonly meant the concentration at which inhibition is half-maximal.
